Legend:
Assay in all cases: relative viability (nuclei count vs DMSO), 5 days (fraction); higher = more cells survive
NCI-H647 = tested on: NCI-H647
How it was run: (§1)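 Relative viability divides the nuclei count in treated wells by that in vehicle wells. Lung cancer cell lines were seeded in 1536-well plates, dosed by pin tool the next day, and fixed and stained after 5 days in one step with final 0.05% Triton X-100, 1% formaldehyde and 1 ug/ml Hoechst. Dosing was a single drug or a fixed anchor-drug dose plus five library-drug doses (not always all listed) in √10 steps, and values are medians of duplicate plates imaged at 4×.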

HCC-78 = tested on: HCC-78
How it was run: as §1

HCC-827 = tested on: HCC-827
How it was run: as §1

NCI-H1666 = tested on: NCI-H1666
How it was run: as §1

NCI-H650 = tested on: NCI-H650
How it was run: as §1

NCI-H2087 = tested on: NCI-H2087
How it was run: as §1

COR-L 105 = tested on: COR-L 105
How it was run: as §1

201T = tested on: 201T
How it was run: as §1

NCI-H520 = tested on: NCI-H520
How it was run: as §1

NCI-H1915 = tested on: NCI-H1915
How it was run: as §1

RERF-LC-KJ = tested on: RERF-LC-KJ
How it was run: as §1

PC-14 = details: first compound 0.08 µM
How it was run: as §1

O=c1cc(-c2cccc3c2Sc2ccccc2S3)oc(N2CCOCC2)c1 + COc1cccc2cc(-c3nc([C@H]4CC[C@H](C(=O)O)CC4)n4ncnc(N)c34)[nH]c12 [OSI-027] (partner 0.5 µM)
relative viability (NCI-H647; first compound 0.08 µM): 0.636 | relative viability (NCI-H647; first compound 0.253 µM): 0.813 | relative viability (NCI-H647; first compound 0.8 µM): 0.588 | relative viability (NCI-H647; first compound 2.53 µM): 0.513 | relative viability (NCI-H647; first compound 8 µM): 0.623 | relative viability (HCC-78; first compound 0.08 µM): 0.341 | relative viability (HCC-78; first compound 0.253 µM): 0.385 | relative viability (HCC-78; first compound 0.8 µM): 0.295 | relative viability (HCC-78; first compound 2.53 µM): 0.344 | relative viability (HCC-78; first compound 8 µM): 0.339 | relative viability (HCC-827; first compound 0.08 µM): 0.802 | relative viability (HCC-827; first compound 0.253 µM): 0.877 | relative viability (HCC-827; first compound 0.8 µM): 0.947 | relative viability (HCC-827; first compound 2.53 µM): 0.643 | relative viability (HCC-827; first compound 8 µM): 0.897 | relative viability (NCI-H1666; first compound 0.08 µM): 0.838 | relative viability (NCI-H1666; first compound 0.253 µM): 1.06 | relative viability (NCI-H1666; first compound 0.8 µM): 0.923 | relative viability (NCI-H1666; first compound 2.53 µM): 0.832 | relative viability (NCI-H1666; first compound 8 µM): 0.885 | relative viability (NCI-H650; first compound 0.08 µM): 0.469 | relative viability (NCI-H650; first compound 0.253 µM): 0.548 | relative viability (NCI-H650; first compound 0.8 µM): 0.508 | relative viability (NCI-H650; first compound 8 µM): 0.562 | relative viability (NCI-H2087; first compound 0.08 µM): 0.352 | relative viability (NCI-H2087; first compound 0.253 µM): 0.649 | relative viability (NCI-H2087; first compound 0.8 µM): 0.589 | relative viability (NCI-H2087; first compound 2.53 µM): 0.416 | relative viability (NCI-H2087; first compound 8 µM): 0.452 | relative viability (COR-L 105; first compound 0.08 µM): 0.686 | relative viability (COR-L 105; first compound 0.253 µM): 0.707 | relative viability (COR-L 105; first compound 0.8 µM): 0.636 | relative viability (COR-L 105; first compound 2.53 µM): 0.686 | relative viability (COR-L 105; first compound 8 µM): 0.734 | relative viability (201T; first compound 0.08 µM): 0.876 | relative viability (201T; first compound 0.8 µM): 0.591 | relative viability (201T; first compound 2.53 µM): 0.695 | relative viability (201T; first compound 8 µM): 0.734 | relative viability (NCI-H520; first compound 0.08 µM): 0.297 | relative viability (NCI-H520; first compound 0.253 µM): 0.257 | relative viability (NCI-H520; first compound 0.8 µM): 0.297 | relative viability (NCI-H520; first compound 2.53 µM): 0.216 | relative viability (NCI-H520; first compound 8 µM): 0.296 | relative viability (NCI-H1915; first compound 0.08 µM): 0.608 | relative viability (NCI-H1915; first compound 0.253 µM): 0.677 | relative viability (NCI-H1915; first compound 0.8 µM): 0.699 | relative viability (NCI-H1915; first compound 2.53 µM): 0.575 | relative viability (NCI-H1915; first compound 8 µM): 0.678 | relative viability (RERF-LC-KJ; first compound 0.08 µM): 0.46 | relative viability (RERF-LC-KJ; first compound 0.253 µM): 0.54 | relative viability (RERF-LC-KJ; first compound 0.8 µM): 0.526 | relative viability (RERF-LC-KJ; first compound 2.53 µM): 0.499 | relative viability (RERF-LC-KJ; first compound 8 µM): 0.494 | relative viability (PC-14): 0.884
